Experimental data: patent US12435044B2, “Pyridazinone herbicides and pyridazinone intermediates used to prepare a herbicide” (FMC Corporation, priority 2018, dated 2025)

How the values were obtained:
Assay type in all cases: in vivo
[1] = system: barnyardgrass (Echinochloa crus-galli); assay: Test B flooded paddy test; conditions: Flood, 250 g ai/ha
Procedure: (§1) Plant species in the flooded paddy test selected from rice (Oryza sativa), sedge, umbrella (small-flower umbrella sedge, Cyperus difformis), duck salad (Heteranthera limosa) and barnyardgrass (Echinochloa crus-galli) were grown to the 2-leaf stage for testing. At time of treatment, test pots were flooded to 3 cm above the soil surface, treated by application of test compounds directly to the paddy water, and then maintained at that water depth for the duration of the test. Treated plants and controls were maintained in a greenhouse for 13 to 15 d, after which time all species were compared to controls and visually evaluated. Plant response ratings, summarized in Table B, are based on a scale of 0 to 100 where 0 is no effect and 100 is complete control. A dash (-) response means no test result.

[2] = system: duck salad (Heteranthera limosa); assay: Test B flooded paddy test; conditions: Flood, 250 g ai/ha, Ducksalad
Procedure: as §1

rice (Oryza sativa) = assay: Test B flooded paddy test; conditions: Flood, 250 g ai/ha
Procedure: as §1

[3] = system: sedge, umbrella (small-flower umbrella sedge, Cyperus difformis); assay: Test B flooded paddy test; conditions: Flood, 250 g ai/ha
Procedure: as §1

[4] = system: sedge, umbrella (small-flower umbrella sedge, Cyperus difformis); assay: Test C flooded paddy test; conditions: Flood, scale 0 to 100
Description: as §1, with “consisted of” for “selected from”, “(transplanted and water seeded, Oryza” for “(Oryza”, “ducksalad” for “duck salad”, “limosa), Bulrush, Japanese (Scirpus juncoides)” for “limosa)”, “crus-galli)” for “crus-galli) were”, “C” for “B,”

[5] = system: barley, spring (Hordeum vulgare); assay: Test D pre-/postemergence controlled growth environment test
Description: (§2) Seeds of plant species selected from blackgrass (Alopecurus myosuroides), galium (catchweed bedstraw, Galium aparine), kochia (Kochia scoparia), oilseed rape (Brassica napus), barley, spring (Hordeum vulgare), wheat, spring (Triticum aestivum), oat, wild (Avena fatua), barley, winter (Hordeum vulgare) and wheat, winter (Triticum aestivum) were planted into a silt loam soil and treated preemergence with test chemicals formulated in a non-phytotoxic solvent mixture which included a surfactant.
(§3) At the same time, plants selected from these crop and weed species and also bluegrass (annual bluegrass, Poa annua), canarygrass (littleseed canarygrass, Phalaris minor), chickweed (common chickweed, Stellaria media), bromegrass, downy (downy bromegrass, Bromus tectorum), field poppy (Papaver rhoeas), field violet (Viola arvensis), foxtail, green (Setaria viridis), deadnettle (henbit deadnettle, Lamium amplexicaule), ryegrass, Italian (Lolium multiflorum), lambsquarters (Chenopodium album), pigweed (Amaranthus retroflexus), chamomile (scentless chamomile, Matricaria inodora), Russian thistle (Salsola kali), speedwell (bird's-eye speedwell, Veronica persica), buckwheat, wild (Polygonum convolvulus), mustard, wild (Sinapis arvensis), radish, wild (Raphanus raphanistrum), windgrass (Apera spica-venti), geranium, cutleaf (Geranium dissectum) and Canada thistle (Cirsium arvense) were planted in pots containing Redi-Earth® planting medium (Scotts Company, 14111 Scottslawn Road, Marysville, Ohio 43041) comprising spaghnum peat moss, vermiculite, wetting agent and starter nutrients and treated with postemergence applications of the test chemicals formulated in the same manner. Plants ranged in height from 2 to 18 cm (1- to 4-leaf stage). Treated plants and controls were maintained in a controlled growth environment for 14 to 21 d after which time all species were compared to controls and visually evaluated. Plant response ratings, summarized in Table D, are based on a scale of 0 to 100 where 0 is no effect and 100 is complete control. A dash (-) response means no test result.

[6] = system: barley, winter (Hordeum vulgare); assay: as above
Description: as §2, §3

[7] = system: blackgrass (Alopecurus myosuroides); assay: as above
Description: as §2, §3

[8] = system: galium (catchweed bedstraw, Galium aparine); assay: as above
Description: as §2, §3

kochia (Kochia scoparia) = assay: as above
Description: as §2, §3

oat, wild (Avena fatua) = assay: as above
Description: as §2, §3

[9] = system: oilseed rape (Brassica napus); assay: as above
Description: as §2, §3

[10] = system: wheat, spring (Triticum aestivum); assay: as above
Description: as §2, §3

[11] = system: wheat, winter (Triticum aestivum); assay: as above
Description: as §2, §3

## Cc1ccc2ccc(C)c(-c3c(O)c(Cl)nn(C)c3=O)c2c1 [Cpd. No. 20, 6-chloro-4-(2,7-dimethyl-1-naphthalenyl)-5-hydroxy-2-methyl-3(2H)-pyridazinone]
[1]
  Plant response rating (0 to 100 scale): 25
[2]
  Plant response rating (0 to 100 scale): 100
Rice (Oryza sativa)
  Plant response rating (0 to 100 scale): 15
[3]
  Plant response rating (0 to 100 scale): 90
[4]; 31 g ai/ha
  Plant response rating, Sedge, Umbrella: 0
[4]; 62 g ai/ha
  Plant response rating, Sedge, Umbrella: 0
[4]; 125 g ai/ha
  Plant response rating, Sedge, Umbrella: 50
[4]; 250 g ai/ha
  Plant response rating, Sedge, Umbrella: 70
[5]; Postemergence, 16 g ai/ha
  Plant response rating, Barley, Spring: 0
[5]; Postemergence, 31 g ai/ha
  Plant response rating, Barley, Spring: 5
[5]; Postemergence, 62 g ai/ha
  Plant response rating, Barley, Spring: 10
[5]; Postemergence, 125 g ai/ha
  Plant response rating, Barley, Spring: 20
[5]; Preemergence, 16 g ai/ha
  Plant response rating, Barley, Spring: 0
[5]; Preemergence, 31 g ai/ha
  Plant response rating, Barley, Spring: 0
[5]; Preemergence, 62 g ai/ha
  Plant response rating, Barley, Spring: 2
[5]; Preemergence, 125 g ai/ha
  Plant response rating, Barley, Spring: 10
[6]; Postemergence, 16 g ai/ha
  Plant response rating, Barley, Winter: 0
[6]; Postemergence, 31 g ai/ha
  Plant response rating, Barley, Winter: 5
[6]; Postemergence, 62 g ai/ha
  Plant response rating, Barley, Winter: 15
[6]; Postemergence, 125 g ai/ha
  Plant response rating, Barley, Winter: 15
[6]; Preemergence, 16 g ai/ha
  Plant response rating, Barley, Winter: 0
[6]; Preemergence, 31 g ai/ha
  Plant response rating, Barley, Winter: 0
[6]; Preemergence, 62 g ai/ha
  Plant response rating, Barley, Winter: 0
[6]; Preemergence, 125 g ai/ha
  Plant response rating, Barley, Winter: 0
[7]; Postemergence, 16 g ai/ha
  Plant response rating, Blackgrass: 15
[7]; Postemergence, 31 g ai/ha
  Plant response rating, Blackgrass: 25
[7]; Postemergence, 62 g ai/ha
  Plant response rating, Blackgrass: 50
[7]; Postemergence, 125 g ai/ha
  Plant response rating, Blackgrass: 60
[7]; Preemergence, 16 g ai/ha
  Plant response rating, Blackgrass: 0
[7]; Preemergence, 31 g ai/ha
  Plant response rating, Blackgrass: 8
[7]; Preemergence, 62 g ai/ha
  Plant response rating, Blackgrass: 20
[7]; Preemergence, 125 g ai/ha
  Plant response rating, Blackgrass: 58
[8]; Postemergence, 16 g ai/ha
  Plant response rating, Galium: 80
[8]; Postemergence, 31 g ai/ha
  Plant response rating, Galium: 90
[8]; Postemergence, 62 g ai/ha
  Plant response rating, Galium: 90
[8]; Postemergence, 125 g ai/ha
  Plant response rating, Galium: 99
[8]; Preemergence, 16 g ai/ha
  Plant response rating, Galium: 78
[8]; Preemergence, 31 g ai/ha
  Plant response rating, Galium: 85
[8]; Preemergence, 62 g ai/ha
  Plant response rating, Galium: 97
[8]; Preemergence, 125 g ai/ha
  Plant response rating, Galium: 100
Kochia (Kochia scoparia); Postemergence, 16 g ai/ha
  Plant response rating, Kochia: 70
Kochia (Kochia scoparia); Postemergence, 31 g ai/ha
  Plant response rating, Kochia: 70
Kochia (Kochia scoparia); Postemergence, 62 g ai/ha
  Plant response rating, Kochia: 70
Kochia (Kochia scoparia); Postemergence, 125 g ai/ha
  Plant response rating, Kochia: 80
Kochia (Kochia scoparia); Preemergence, 16 g ai/ha
  Plant response rating, Kochia: 7
Kochia (Kochia scoparia); Preemergence, 31 g ai/ha
  Plant response rating, Kochia: 25
Kochia (Kochia scoparia); Preemergence, 62 g ai/ha
  Plant response rating, Kochia: 35
Kochia (Kochia scoparia); Preemergence, 125 g ai/ha
  Plant response rating, Kochia: 80
oat, wild (Avena fatua); Postemergence, 16 g ai/ha
  Plant response rating, Oat, Wild: 25
oat, wild (Avena fatua); Postemergence, 31 g ai/ha
  Plant response rating, Oat, Wild: 65
oat, wild (Avena fatua); Postemergence, 62 g ai/ha
  Plant response rating, Oat, Wild: 80
oat, wild (Avena fatua); Postemergence, 125 g ai/ha
  Plant response rating, Oat, Wild: 90
oat, wild (Avena fatua); Preemergence, 16 g ai/ha
  Plant response rating, Oat, Wild: 22
oat, wild (Avena fatua); Preemergence, 31 g ai/ha
  Plant response rating, Oat, Wild: 33
oat, wild (Avena fatua); Preemergence, 62 g ai/ha
  Plant response rating, Oat, Wild: 73
oat, wild (Avena fatua); Preemergence, 125 g ai/ha
  Plant response rating, Oat, Wild: 83
[9]; Postemergence, 16 g ai/ha
  Plant response rating, Oilseed Rape: 15
[9]; Postemergence, 31 g ai/ha
  Plant response rating, Oilseed Rape: 15
[9]; Postemergence, 62 g ai/ha
  Plant response rating, Oilseed Rape: 20
[9]; Postemergence, 125 g ai/ha
  Plant response rating, Oilseed Rape: 25
[9]; Preemergence, 16 g ai/ha
  Plant response rating, Oilseed Rape: 0
[9]; Preemergence, 31 g ai/ha
  Plant response rating, Oilseed Rape: 0
[9]; Preemergence, 62 g ai/ha
  Plant response rating, Oilseed Rape: 0
[9]; Preemergence, 125 g ai/ha
  Plant response rating, Oilseed Rape: 0
[10]; Postemergence, 16 g ai/ha
  Plant response rating, Wheat, Spring: 15
[10]; Postemergence, 31 g ai/ha
  Plant response rating, Wheat, Spring: 25
[10]; Postemergence, 62 g ai/ha
  Plant response rating, Wheat, Spring: 35
[10]; Postemergence, 125 g ai/ha
  Plant response rating, Wheat, Spring: 55
[10]; Preemergence, 16 g ai/ha
  Plant response rating, Wheat, Spring: 0
[10]; Preemergence, 31 g ai/ha
  Plant response rating, Wheat, Spring: 12
[10]; Preemergence, 62 g ai/ha
  Plant response rating, Wheat, Spring: 28
[10]; Preemergence, 125 g ai/ha
  Plant response rating, Wheat, Spring: 62
[11]; Postemergence, 16 g ai/ha
  Plant response rating, Wheat, Winter: 10
[11]; Postemergence, 31 g ai/ha
  Plant response rating, Wheat, Winter: 15
[11]; Postemergence, 62 g ai/ha
  Plant response rating, Wheat, Winter: 20
[11]; Postemergence, 125 g ai/ha
  Plant response rating, Wheat, Winter: 30
[11]; Preemergence, 16 g ai/ha
  Plant response rating, Wheat, Winter: 0
[11]; Preemergence, 31 g ai/ha
  Plant response rating, Wheat, Winter: 0
[11]; Preemergence, 62 g ai/ha
  Plant response rating, Wheat, Winter: 5
[11]; Preemergence, 125 g ai/ha
  Plant response rating, Wheat, Winter: 17
